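A five-concentration, 48-hour dose response in 96-well plates underlies each endpoint, interpolated linearly between surrounding concentrations. GI50 marks 50% less growth.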 Activity calls are given as the source filed them. Cut-off read from the data, not from the text of the source: active = GI50 up to about 1.1 µM and inactive = higher.
Experiments:
Assay in all cases: growth of human tumour cells (NCI), 48 h
[1] = tested on: 786-0
[2] = tested on: A498
[3] = tested on: A549
[4] = tested on: ACHN
[5] = tested on: BT-549
[6] = tested on: CAKI-1
[7] = tested on: CCRF-CEM
[8] = tested on: COLO 205
[9] = tested on: DU-145
[10] = tested on: EKVX
[11] = tested on: HCC 2998
[12] = tested on: HCT-116
[13] = tested on: HCT-15
[14] = tested on: HL-60
[15] = tested on: HOP-62
[16] = tested on: HOP-92
[17] = tested on: HT-29
[18] = tested on: Hs-578T
[19] = tested on: IGROV-1
[20] = tested on: K562
[21] = tested on: KM12
[22] = tested on: LOX IMVI
[23] = tested on: M14
[24] = tested on: MCF7
[25] = tested on: MDA-MB-231
[26] = tested on: MDA-MB-435
[27] = tested on: MDA-N
[28] = tested on: MOLT-4
[29] = tested on: Malme-3M
[30] = tested on: NCI-H23
[31] = tested on: NCI-H460
[32] = tested on: NCI-H522
[33] = tested on: NCI/ADR-RES
[34] = tested on: OVCAR-3
[35] = tested on: OVCAR-5
[36] = tested on: OVCAR-8
[37] = tested on: PC-3
[38] = tested on: RPMI-8226
[39] = tested on: RXF 393
[40] = tested on: SF-268
[41] = tested on: SF-295
[42] = tested on: SF-539
[43] = tested on: SK-MEL-28
[44] = tested on: SK-MEL-2
[45] = tested on: SK-MEL-5
[46] = tested on: SK-OV-3
[47] = tested on: SN12C
[48] = tested on: SNB-19
[49] = tested on: SNB-75
[50] = tested on: SR
[51] = tested on: SW-620
[52] = tested on: T47D
[53] = tested on: TK-10
[54] = tested on: U-251
[55] = tested on: UACC-257
[56] = tested on: UACC-62
[57] = tested on: UO-31
[58] = tested on: NCI-H226
[59] = tested on: OVCAR-4

In the case of O=C1/C(=C/c2ccncc2)C(n2cccc2)c2c(Br)sc(Br)c21 (configuration not stated), the GI50 [1] is reported as 3.41 µM (inactive), the GI50 [2] is reported as 22.7 µM (inactive) and the GI50 [3] is reported as 14.9 µM (inactive). For the same compound, the GI50 [4] was 4.95 µM (inactive), the GI50 [5] was 3.07 µM (inactive) and the GI50 [6] was 3.26 µM (inactive). The GI50 [7] was 0.671 µM (active), the GI50 [8] was 10.4 µM (inactive) and the GI50 [9] was 3.56 µM (inactive). For the same compound, the GI50 [10] was 3.1 µM (inactive), the GI50 [11] was 1.88 µM (inactive) and the GI50 [12] was 2.79 µM (inactive). For the same compound, the GI50 [13] was 2.85 µM, the GI50 [14] was 1.53 µM (inactive) and the GI50 [15] was 3.03 µM (inactive). For the same compound, the GI50 [16] was 2.86 µM (inactive), the GI50 [17] was 4.82 µM (inactive) and the GI50 [18] was 2.77 µM (inactive). The GI50 [19] was 1.96 µM (inactive), the GI50 [20] was 1.82 µM (inactive) and the GI50 [21] was 11.3 µM (inactive). The GI50 [22] was 1.93 µM (inactive), the GI50 [23] was 0.263 µM (active) and the GI50 [24] was 3.85 µM (inactive). The GI50 [25] was 2.25 µM (inactive), the GI50 [26] was 2.11 µM (inactive) and the GI50 [27] was 2.52 µM (inactive). The GI50 [28] was 1.4 µM (inactive), the GI50 [29] was 3.02 µM (inactive) and the GI50 [30] was 2.56 µM (inactive). The GI50 [31] was 4.39 µM (inactive), the GI50 [32] was 11.7 µM (inactive) and the GI50 [33] was 14.3 µM (inactive). For the same compound, the GI50 [34] was 1.87 µM (inactive), the GI50 [35] was 14.3 µM (inactive) and the GI50 [36] was 2.28 µM (inactive). For the same compound, the GI50 [37] was 4.41 µM (inactive), the GI50 [38] was 2.02 µM (inactive) and the GI50 [39] was 1.88 µM (inactive). The GI50 [40] was 2.99 µM (inactive), the GI50 [41] was 13.3 µM (inactive) and the GI50 [42] was 3.87 µM (inactive). The GI50 [43] was 2.65 µM (inactive), the GI50 [44] was 2.46 µM (inactive) and the GI50 [45] was 13.7 µM (inactive). For the same compound, the GI50 [46] was 7.78 µM (inactive), the GI50 [47] was 4.39 µM (inactive) and the GI50 [48] was 15.5 µM (inactive). The GI50 [49] was 3.53 µM (inactive), the GI50 [50] was 2.58 µM (inactive) and the GI50 [51] was 1.57 µM (inactive). The GI50 [52] was 3.73 µM (inactive), the GI50 [53] was 4.2 µM (inactive) and the GI50 [54] was 2.11 µM (inactive). The GI50 [55] was 2.1 µM (inactive), the GI50 [56] was 2.94 µM (inactive) and the GI50 [57] was 2.29 µM (inactive).
For O=C(O)c1ccc2c(c1)CC1(C2)Cc2cc3c(cc2C1=O)CCC3 (configuration not stated), the GI50 [1] was > 100 µM (inactive), the GI50 [2] was 19.5 µM (inactive) and the GI50 [3] was 69 µM (inactive). The GI50 [4] was > 100 µM (inactive), the GI50 [5] was > 100 µM (inactive) and the GI50 [7] was > 100 µM (inactive). The GI50 [8] was > 100 µM (inactive), the GI50 [9] was > 100 µM (inactive) and the GI50 [10] was > 100 µM (inactive). The GI50 [11] was > 100 µM (inactive), the GI50 [12] was > 100 µM (inactive) and the GI50 [13] was 79.6 µM. For the same compound, the GI50 [14] was > 100 µM (inactive), the GI50 [15] was > 100 µM (inactive) and the GI50 [16] was 69 µM (inactive). The GI50 [17] was > 100 µM (inactive), the GI50 [18] was > 100 µM (inactive) and the GI50 [19] was > 100 µM (inactive). The GI50 [20] was > 100 µM (inactive), the GI50 [21] was > 100 µM (inactive) and the GI50 [22] was > 100 µM (inactive). The GI50 [23] was > 100 µM (inactive), the GI50 [24] was > 100 µM (inactive) and the GI50 [25] was > 100 µM (inactive). For the same compound, the GI50 [26] was > 100 µM (inactive), the GI50 [27] was > 100 µM (inactive) and the GI50 [28] was > 100 µM (inactive). The GI50 [29] was > 100 µM (inactive), the GI50 [58] was > 100 µM (inactive) and the GI50 [30] was > 100 µM (inactive). The GI50 [31] was > 100 µM (inactive), the GI50 [32] was > 100 µM (inactive) and the GI50 [33] was > 100 µM (inactive). The GI50 [34] was > 100 µM (inactive), the GI50 [59] was > 100 µM (inactive) and the GI50 [35] was > 100 µM (inactive). The GI50 [36] was 97.9 µM (inactive), the GI50 [37] was > 100 µM (inactive) and the GI50 [38] was > 100 µM (inactive). The GI50 [39] was 73.5 µM (inactive), the GI50 [40] was 46.8 µM (inactive) and the GI50 [41] was 93.3 µM (inactive). For the same compound, the GI50 [42] was > 100 µM (inactive), the GI50 [43] was > 100 µM (inactive) and the GI50 [44] was > 100 µM (inactive). For the same compound, the GI50 [45] was 93.8 µM (inactive), the GI50 [46] was > 100 µM (inactive) and the GI50 [47] was > 100 µM (inactive). The GI50 [48] was > 100 µM (inactive), the GI50 [49] was 56 µM (inactive) and the GI50 [50] was > 100 µM (inactive). The GI50 [51] was > 100 µM (inactive), the GI50 [52] was 34.4 µM (inactive) and the GI50 [53] was > 100 µM (inactive). The GI50 [54] was > 100 µM (inactive), the GI50 [55] was > 100 µM (inactive) and the GI50 [56] was > 100 µM (inactive). The GI50 [57] was 85.1 µM (inactive).
In the case of Cc1cc(C)c(S(=O)(=O)N(CCCN)OCCON(CCCN)S(=O)(=O)c2c(C)cc(C)cc2C)c(C)c1, the GI50 [1] is reported as 3.93 µM (inactive), the GI50 [2] is reported as 19.5 µM (inactive) and the GI50 [3] is reported as 3.31 µM (inactive). The GI50 [4] was 23.7 µM (inactive), the GI50 [5] was 7.78 µM (inactive) and the GI50 [6] was 26.2 µM (inactive). The GI50 [7] was 2.71 µM (inactive), the GI50 [8] was 2.66 µM (inactive) and the GI50 [9] was 5.68 µM (inactive). The GI50 [10] was 5.24 µM (inactive), the GI50 [11] was 1.9 µM (inactive) and the GI50 [12] was 2.24 µM (inactive). The GI50 [13] was 25.7 µM, the GI50 [15] was 3.01 µM (inactive) and the GI50 [16] was 6.24 µM (inactive). For the same compound, the GI50 [17] was 10 µM (inactive), the GI50 [18] was 2.67 µM (inactive) and the GI50 [19] was 1.97 µM (inactive). For the same compound, the GI50 [20] was 2.96 µM (inactive), the GI50 [21] was 2.17 µM (inactive) and the GI50 [22] was 2.44 µM (inactive). For the same compound, the GI50 [23] was 2.75 µM (inactive), the GI50 [24] was 2.59 µM (inactive) and the GI50 [25] was 2.89 µM (inactive). The GI50 [26] was 3.89 µM (inactive), the GI50 [27] was 2.74 µM (inactive) and the GI50 [28] was 2.64 µM (inactive). For the same compound, the GI50 [29] was 1.93 µM (inactive), the GI50 [58] was 4.44 µM (inactive) and the GI50 [30] was 2.59 µM (inactive). For the same compound, the GI50 [31] was 2.67 µM (inactive), the GI50 [32] was 6.53 µM (inactive) and the GI50 [33] was 22.1 µM (inactive). The GI50 [34] was 1.79 µM (inactive), the GI50 [59] was 3.3 µM (inactive) and the GI50 [35] was 2.24 µM (inactive). The GI50 [36] was 12.6 µM (inactive), the GI50 [37] was 1.73 µM (inactive) and the GI50 [38] was 2.05 µM (inactive). The GI50 [39] was 4.67 µM (inactive), the GI50 [40] was 2.18 µM (inactive) and the GI50 [41] was 20.2 µM (inactive). The GI50 [42] was 2.49 µM (inactive), the GI50 [43] was 5.26 µM (inactive) and the GI50 [44] was 1.64 µM (inactive). The GI50 [45] was 8.2 µM (inactive), the GI50 [46] was 5.01 µM (inactive) and the GI50 [47] was 7.87 µM (inactive). For the same compound, the GI50 [48] was 2.08 µM (inactive), the GI50 [49] was 3.42 µM (inactive) and the GI50 [50] was 3.12 µM (inactive). For the same compound, the GI50 [51] was > 22.2 µM (inactive), the GI50 [52] was 4.92 µM (inactive) and the GI50 [53] was 8 µM (inactive). The GI50 [55] was 3.39 µM (inactive), the GI50 [56] was 4.19 µM (inactive) and the GI50 [57] was 23.3 µM (inactive).

From ChEMBL document CHEMBL1201862, “PubChem BioAssay data set” (2004)
